Data published in patent US6358964B1, “Adenosine, A3 receptor modulators” (priority 2000, dated 2002).

Target: T1, human recombinant A3 adenosine receptors (Homo sapiens, UniProt P0DMS8)
T1 construct: expressed in transfected cells; host or cells: CHO cells
T1 sequence (P0DMS8 1-318): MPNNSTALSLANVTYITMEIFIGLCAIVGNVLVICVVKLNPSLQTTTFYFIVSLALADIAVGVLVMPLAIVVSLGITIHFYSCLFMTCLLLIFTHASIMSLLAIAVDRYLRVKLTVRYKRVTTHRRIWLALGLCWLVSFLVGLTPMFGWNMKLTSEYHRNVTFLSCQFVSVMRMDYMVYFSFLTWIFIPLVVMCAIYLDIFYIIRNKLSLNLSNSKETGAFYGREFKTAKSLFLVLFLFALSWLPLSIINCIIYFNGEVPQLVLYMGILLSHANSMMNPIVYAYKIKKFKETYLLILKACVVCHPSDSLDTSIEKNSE
Assay: Human cloned A3 adenosine receptor binding assay ([3H]MRE3008-F20 displacement, CHO membranes)
Settings: radioligand binding, read-out: binding affinity at human A3 receptors (hA3)
Procedure: Inhibitory binding constant, Ki, values can be calculated from those of IC50 according to the Cheng & Prusoff equation (Cheng and Prusoff, Biochem. Pharmacol. 22:3099-3108 (1973)), Ki=IC50/(1+[C*]/KD*), where [C*] is the concentration of the radioligand and KD* its dissociation constant.
The expression of the human […], A2A and A3 receptors in CHO cells has been previously described (Klotz et al., 1998). The cells were grown adherently and maintained in Dulbecco's modified Eagle's medium with nutrient mixture F12 without nucleosides at 37° C. in 5% CO2/95% air. Cells were split two or three times weekly and then the culture medium was removed for membrane preparations. […]
Binding of [^3H] […] Bound and free radioactivity were separated by filtering the assay mixture through Whatman GF/B glass-fiber filters using a Micro-mate 196 cell harvester (Packard Instrument Company). The filter bound radioactivity was counted on Top Count (efficiency 57%) with Micro-Scint 20. The protein concentration was determined according to a BioRad method (Bradford, M. M., “A rapid and sensitive method for the quantification of microgram quantities of protein utilizing the principle of protein dye-binding,” Anal. Biochem. 72, 248, 1976) with bovine albumin as reference standard.

Row | Compound | Ki [nM]
1 | O=C(Nc1cccc(Cl)c1)Nc1nc2ccc(Cl)cc2c2nc(-c3ccco3)nn12 [Compound 2] | 0.19
2 | COc1ccc(NC(=O)Nc2nc3ccc(Cl)cc3c3nc(-c4ccco4)nn23)cc1 [Compound 1] | 0.14
